Test results from patent US10526343B2, “Heterocyclic systems and pharmaceutical applications thereof” (University of Sharjah, priority 2018, dated 2020).
Values after ≈ are worked out from the molar mass of the structure shown.

Columns and labels:
Format in all cases: cell-based
[1] = test system: Staphylococcus aureus (ATCC 25923); assay: Cell viability assay (resazurin) screening for antibacterial activity; set-up: key: Positive: A positive result indicates antibacterial activity expressed as growth inhibition; Negative: a negative result indicates no antibacterial activity expressed as bacterial growth at the tested concentration; conditions: single high concentration of 1 mg/mL
[2] = test system: Enterococcus faecalis (ATCC 29212); assay: as above; set-up: key: Positive: A positive result indicates antibacterial activity expressed as growth inhibition; Negative: a negative result indicates no antibacterial activity expressed as bacterial growth at the tested concentration; conditions: single high concentration of 1 mg/mL
[3] = test system: Bacillus subtilis (environmental isolate); assay: as above; set-up: key: Positive: A positive result indicates antibacterial activity expressed as growth inhibition; Negative: a negative result indicates no antibacterial activity expressed as bacterial growth at the tested concentration; conditions: single high concentration of 1 mg/mL
[4] = test system: Escherichia coli (ATCC 25922); assay: as above; set-up: key: Positive: A positive result indicates antibacterial activity expressed as growth inhibition; Negative: a negative result indicates no antibacterial activity expressed as bacterial growth at the tested concentration; conditions: single high concentration of 1 mg/mL
[5] = test system: Pseudomonas aeruginosa (ATCC 27853); assay: as above; set-up: key: Positive: A positive result indicates antibacterial activity expressed as growth inhibition; Negative: a negative result indicates no antibacterial activity expressed as bacterial growth at the tested concentration; conditions: single high concentration of 1 mg/mL
[6] = test system: S. aureus (ATCC 25923); assay: MIC by broth microdilution; conditions: Staphylococcus aureus, ATCC25923
Protocol: (§1) Bacteria of the genus Staphylococcus were selected for MIC investigation due to its clinical importance. Compounds showing activity against S. aureus (ATCC 25923) were tested against 10 multidrug-resistant strains of Staphylococcus species, including: clinical isolates methicillin-resistant Staphylococcus aureus (MRSA) strains MRSA-1, MRSA-2, and MRSA-3, and environmental isolates S. saprophyticus (strains UDH-1, UDH-2, UDH-3 and UDH-4), S. haemolyticus (strains UDH-6 and UDH-7), and S. epidermidis strain UDH-5.
(§2) A broth microdilution method was used to measure MIC according to the Clinical and Laboratory Standards Institute guidelines. Two-fold serial dilutions of the test compound (8 concentrations ranged between 100-0.78 μg/mL) were tested. Two reference antibiotics were used as quality controls (ciprofloxacin and amikacin). In each experiment, solvent (DMSO) was used as a negative control, un-treated control (composing of bacteria in Mueller-Hinton broth) was used as a growth control, blank (culture media alone) was used as sterility control. The 96-well microplate with the test compounds was incubated for 20 hours at 37° C. Turbidity in wells indicated bacterial growth. […] For the definite determination of MIC, CellTiter-Blue® Cell Viability Assay (Promega, USA) was used (as above). The MIC was defined as the lowest compound concentration that prevented the color change of the Cell Viability solution (absence of bacterial growth; thus, suspension remained blue in color). For the definite determination of MIC, CellTiter-Blue® Cell Viability Assay (Promega, USA) was used (as above). To each well of the 96-well microplate, 20 μL of the Cell Viability Assay solution was added to the overnight (20 hours culture) and incubated at 37° C. for 4 hours. After the end of the incubation, pink and blue colors were used to differentiate viable from dead bacterial suspensions, respectively. The MIC was defined as the lowest compound concentration that prevented the color change.

[7] = test system: MRSA-1 (clinical isolate, methicillin-resistant Staphylococcus aureus); assay: MIC by broth microdilution; conditions: Staphylococcus aureus, MRSA; clinical isolate
Protocol: (§3) Bacteria of the genus Staphylococcus were selected for MIC investigation due to its clinical importance.
as §2, with “Two reference antibiotics were used as quality controls (ciprofloxacin and amikacin).” left out

[8] = test system: MRSA-2 (clinical isolate, methicillin-resistant Staphylococcus aureus); assay: MIC by broth microdilution
Protocol: as §3
as §2, with “Two reference antibiotics were used as quality controls (ciprofloxacin and amikacin).” left out

[9] = test system: MRSA-3 (clinical isolate, methicillin-resistant Staphylococcus aureus); assay: MIC by broth microdilution
Protocol: as §3
as §2, with “Two reference antibiotics were used as quality controls (ciprofloxacin and amikacin).” left out

[10] = test system: UDH-1 (environmental isolate, S. saprophyticus); assay: MIC by broth microdilution; conditions: for MIC: Staphylococcus saprophyticus, environmental isolate; for times lower than MIC of ciprofloxacin: UDH-1
Protocol: as §1
(§4) All these strains were resistant to at least three antibiotics from different classes, as confirmed by a disk diffusion assay.
as §2

[11] = test system: UDH-2 (environmental isolate, S. saprophyticus); assay: MIC by broth microdilution; conditions: Staphylococcus saprophyticus
Protocol: as §1, §4, §2

[12] = test system: UDH-3 (environmental isolate, S. saprophyticus); assay: MIC by broth microdilution; conditions: for MIC: Staphylococcus saprophyticus, environmental isolate
Protocol: as §1, §4, §2

[13] = test system: UDH-4 (environmental isolate, S. saprophyticus); assay: MIC by broth microdilution; conditions: Staphylococcus saprophyticus
Protocol: as §1, §4, §2

[14] = test system: UDH-5 (environmental isolate, S. epidermidis); assay: MIC by broth microdilution; conditions: Staphylococcus epidermidis
Protocol: as §1, §4, §2

[15] = test system: UDH-6 (environmental isolate, S. haemolyticus); assay: MIC by broth microdilution; conditions: Staphylococcus haemolyticus; environmental isolate
Protocol: as §1, §4, §2

[16] = test system: UDH-7 (environmental isolate, S. haemolyticus); assay: MIC by broth microdilution; conditions: Staphylococcus haemolyticus; environmental isolate
Protocol: as §1, §4, §2

COC(=O)CC1COc2c(cc3c4c2CCCN4CCC3)-c2c(NC(C)(C)C)n3c(-c4ccccc4)c(-c4ccccc4)sc3[n+]21 (stereo not shown) [Compound 2a]
antibacterial activity, Staphylococcus aureus [1]: positive antibacterial activities | antibacterial activity, Enterococcus faecalis [2]: Positive | antibacterial activity, Bacillus subtilis [3]: Positive | antibacterial activity, Escherichia coli [4]: Negative | antibacterial activity, Pseudomonas aeruginosa [5]: Negative | MIC [6]: 6.25 mg/L | MIC [7]: 6.25 mg/L | MIC [8]: 3.12 mg/L | MIC [9]: 3.12 mg/L | MIC [10]: 6.25 mg/L | times lower than MIC of ciprofloxacin [10]: approximately 10 times | MIC [11]: 6.25 mg/L | MIC [12]: 3.12 mg/L | times lower than MIC of ciprofloxacin ([12]; UDH-3): approximately 20 times | MIC [13]: 6.25 mg/L | MIC [14]: 1.56 mg/L | MIC [15]: 6.25 mg/L | MIC [16]: 12.5 mg/L

COC(=O)CC1COc2c(cc3c4c2CCCN4CCC3)-c2c(NC(C)(C)C)n3c(-c4ccc(F)cc4)c(C)sc3[n+]21 (stereo not shown) [Compound 1n]
antibacterial activity, Staphylococcus aureus [1]: Positive | antibacterial activity, Enterococcus faecalis [2]: Positive | antibacterial activity, Bacillus subtilis [3]: Positive | antibacterial activity, Escherichia coli [4]: Negative | antibacterial activity, Pseudomonas aeruginosa [5]: Negative | MIC [6]: 6.25 mg/L | MIC [7]: 12.5 mg/L | MIC [8]: 12.5 mg/L | MIC [9]: 12.5 mg/L | MIC [10]: 12.5 mg/L | MIC [11]: 12.5 mg/L | MIC [12]: 12.5 mg/L | MIC [13]: 12.5 mg/L | MIC [14]: 6.25 mg/L | MIC [15]: 25 mg/L | MIC [16]: 25 mg/L

COC(=O)CC1COc2c(cc3c4c2CCCN4CCC3)-c2c(N)n3c(-c4ccc(F)cc4)c(C)sc3[n+]21 (stereo not shown) [Compound 2b]
antibacterial activity, Staphylococcus aureus [1]: Positive | antibacterial activity, Enterococcus faecalis [2]: Positive | antibacterial activity, Bacillus subtilis [3]: Positive | antibacterial activity, Escherichia coli [4]: Negative | antibacterial activity, Pseudomonas aeruginosa [5]: Negative | MIC [6]: 12.5 mg/L | MIC [7]: 12.5 mg/L | MIC [8]: 12.5 mg/L | MIC [9]: 12.5 mg/L | MIC [10]: 12.5 mg/L | MIC [11]: 12.5 mg/L | MIC [12]: 25 mg/L | MIC [13]: 12.5 mg/L | MIC [14]: 6.25 mg/L | MIC [15]: 25 mg/L | MIC [16]: 25 mg/L

COC(=O)CC1COc2c(cc3c4c2CCCN4CCC3)-c2c(NC(C)(C)C)n3c(-c4ccc(OC)cc4)c(-c4ccc(OC)cc4)sc3[n+]21 (stereo not shown) [Compound 1z]
antibacterial activity, Staphylococcus aureus [1]: Positive | antibacterial activity, Enterococcus faecalis [2]: Positive | antibacterial activity, Bacillus subtilis [3]: Positive | antibacterial activity, Escherichia coli [4]: Negative | antibacterial activity, Pseudomonas aeruginosa [5]: Negative | MIC [6]: 3.12 mg/L | MIC [7]: 6.25 mg/L | MIC [8]: 6.25 mg/L | MIC [9]: 6.25 mg/L | MIC [10]: 12.5 mg/L | MIC [11]: 6.25 mg/L | MIC [12]: 12.5 mg/L | MIC [13]: 3.12 mg/L | MIC [14]: 1.56 mg/L | MIC [15]: 12.5 mg/L | MIC [16]: 12.5 mg/L

COC(=O)CC1COc2c(cc3c4c2CCCN4CCC3)-c2c(NC(C)(C)C)n3c(-c4ccc(NC(C)=O)cc4)csc3[n+]21 (stereo not shown) [Compound 1w]
antibacterial activity, Staphylococcus aureus [1]: Positive | antibacterial activity, Enterococcus faecalis [2]: Positive | antibacterial activity, Bacillus subtilis [3]: Positive | antibacterial activity, Escherichia coli [4]: Negative | antibacterial activity, Pseudomonas aeruginosa [5]: Negative | MIC [6]: 6.25 mg/L | MIC [7]: 12.5 mg/L | MIC [8]: 12.5 mg/L | MIC [9]: 12.5 mg/L | MIC [10]: 12.5 mg/L | MIC [11]: 25 mg/L | MIC [12]: 12.5 mg/L | MIC [13]: 12.5 mg/L | MIC [14]: 6.25 mg/L | MIC [15]: 50 mg/L | MIC [16]: 50 mg/L

COC(=O)CC1COc2c(cc3c4c2CCCN4CCC3)-c2c(NC(C)(C)C)n3c(-c4ccc(Br)cc4)csc3[n+]21 (stereo not shown) [Compound 1q]
antibacterial activity, Staphylococcus aureus [1]: Positive | antibacterial activity, Enterococcus faecalis [2]: Positive | antibacterial activity, Bacillus subtilis [3]: Positive | antibacterial activity, Escherichia coli [4]: Negative | antibacterial activity, Pseudomonas aeruginosa [5]: Negative | MIC [6]: 3.12 mg/L | MIC [7]: 6.25 mg/L | MIC [8]: 6.25 mg/L | MIC [9]: 6.25 mg/L | MIC [10]: 6.25 mg/L | times lower than MIC of ciprofloxacin [10]: approximately 10 times | MIC [11]: 6.25 mg/L | MIC [12]: 12.5 mg/L | MIC [13]: 3.12 mg/L | MIC [14]: 3.12 mg/L | MIC [15]: 12.5 mg/L | MIC [16]: 12.5 mg/L

COC(=O)CC1COc2c(cc3c4c2CCCN4CCC3)-c2c(NC(C)(C)C)n3c4ccc(Br)cc4sc3[n+]21 (stereo not shown) [Compound 1v]
antibacterial activity, Staphylococcus aureus [1]: Positive | antibacterial activity, Enterococcus faecalis [2]: Positive | antibacterial activity, Bacillus subtilis [3]: Positive | antibacterial activity, Escherichia coli [4]: Negative | antibacterial activity, Pseudomonas aeruginosa [5]: Negative | MIC [6]: 12.5 mg/L | MIC [7]: 12.5 mg/L | MIC [8]: 12.5 mg/L | MIC [9]: 12.5 mg/L | MIC [10]: 12.5 mg/L | MIC [11]: 25 mg/L | MIC [12]: 12.5 mg/L | MIC [13]: 25 mg/L | MIC [14]: 6.25 mg/L | MIC [15]: 50 mg/L | MIC [16]: 50 mg/L

NCC[C@H](O)C(=O)N[C@@H]1C[C@H](N)[C@@H](O[C@H]2O[C@H](CN)[C@@H](O)[C@H](O)[C@H]2O)[C@H](O)[C@H]1O[C@H]1O[C@H](CO)[C@@H](O)[C@H](N)[C@H]1O [Amikacin, amikacin, reference compound]
MIC [6]: 4 mg/L (≈ 6.83 µM) | MIC [7]: 16 mg/L (≈ 27.3 µM) | MIC [8]: 8 mg/L (≈ 13.7 µM) | MIC [9]: 2 mg/L (≈ 3.42 µM) | MIC [10]: 8 mg/L (≈ 13.7 µM) | MIC [11]: 0.25 mg/L (≈ 0.427 µM) | MIC [12]: 0.5 mg/L (≈ 0.854 µM) | MIC [13]: < 0.25 mg/L | MIC [14]: < 0.25 mg/L | MIC [15]: 4 mg/L (≈ 6.83 µM) | MIC [16]: 4 mg/L (≈ 6.83 µM)

COC(=O)CC1COc2c(cc3c4c2CCCN4CCC3)-c2c(NC(C)(C)C)n3c(-c4ccc(Cl)cc4Cl)c(C)sc3[n+]21 (stereo not shown) [Compound 1x]
antibacterial activity, Staphylococcus aureus [1]: Positive | antibacterial activity, Enterococcus faecalis [2]: Positive | antibacterial activity, Bacillus subtilis [3]: Positive | antibacterial activity, Pseudomonas aeruginosa [5]: Negative | MIC [6]: 3.12 mg/L | MIC [7]: 6.25 mg/L | MIC [8]: 6.25 mg/L | MIC [9]: 6.25 mg/L | MIC [10]: 6.25 mg/L | times lower than MIC of ciprofloxacin [10]: approximately 10 times | MIC [11]: 6.25 mg/L | MIC [12]: 6.25 mg/L | MIC [13]: 3.12 mg/L | MIC [14]: 1.56 mg/L | MIC [15]: 6.25 mg/L | MIC [16]: 12.5 mg/L
